In paper PMC12693167, “Design, Synthesis and Anticancer Activity of 6-Substituted-1-(3,4,5-trimethoxyphenyl)-1H-indole Against Tubulin Polymerisation” (Molecules, 2025):
Entries after “also recorded” stand apart in the source; their conditions may differ.

How the values were obtained:
MCF-7 cells [1] = test: CCK-8 antiproliferative assay, MCF-7; format: cell-based; details: Homo sapiens, MCF7; cell viability (CCK-8), 48 h
Method: (§1) To evaluate the anticancer potential of the synthesized compounds, a panel of six human and murine cancer cell lines representing different tissue origins was selected, including MCF-7 (human breast adenocarcinoma), MDA-MB-231 (human triple-negative breast cancer), A549 (human non-small cell lung cancer), HeLa (human cervical cancer), A375 (human melanoma), and B16-F10 (murine melanoma) (Table 2). […] DMSO was used as the vehicle control, and all experiments were performed in triplicate to ensure reproducibility.
(§2) Human breast cancer cells (MCF-7), human lung cancer cells (A549), human cervical cancer cells (HeLa), human triple-negative breast cancer cells (MDA-MB-231), and human malignant melanoma cells (A375) were cultured in DMEM. Mouse melanoma cells (B16F10) were maintained in RPMI-1640 medium. All media were supplemented with 10% fetal bovine serum and 1% penicillin-streptomycin (Life Technologies, Carlsbad, CA, USA) and maintained at 37 °C in a humidified atmosphere with 5% CO2.
(§3) The cytotoxicity of the test compounds was evaluated against MCF-7, A549, HeLa, MDA-MB-231, A375, and B16F10 using the CCK-8 assay. Cells were seeded into 96-well plates at a density of 5000 cells/well. After removing the medium, 100 μL of medium with 0.1% DMSO containing test compounds at different concentrations was added to each well and incubated at 37 °C for another 48 h. The CCK-8 solution was added and incubated for another 1 h, and then, the absorbance was detected with a microplate reader at a wavelength of 450 nm. The IC50 values were calculated by nonlinear regression analysis using GraphPad Prism 8.0.2. All the experiments were repeated at least three times.

MDA-MB-231 cells = test: CCK-8 antiproliferative assay, MDA-MB-231; format: cell-based; details: Homo sapiens, cell viability (CCK-8), 48 h
Method: as §1, §2, §3

A549 cells = test: CCK-8 antiproliferative assay, A549; format: cell-based; details: Homo sapiens, cell viability (CCK-8), 48 h
Method: as §1, §2, §3

MCF-7 cells [2] = test: Colony formation assay; format: cell-based, human; details: 24 h treatment
Method: To assess the long-term antiproliferative potential of compound 3g, a colony formation assay was conducted using MCF-7 breast cancer cells.
MCF-7 cells (1000 cells/well) were counted and seeded in 6-well plates. After being cultured for 24 h at 37 °C, the medium was replaced with medium added with compound 3g at the indicated concentration. After 24 h of treatment, the medium was changed to normal. After being cultured for another 10–14 days, the colonies were fixed with 4% paraformaldehyde for 30 min and stained with 0.1% crystal violet for 15 min. Following washing with PBS, the colonies were then photographed and quantified using Image J 1.54g.
Figure 3 Inhibition of MCF-7 Cell Colony Formation by Compound 3g. (A) 3g inhibited the colony formation of MCF-7 cells at different concentrations in a dose-dependent manner. (B) Colony units in the different groups after treatment with 3g. Number of colonies was counted after treating MCF-7 cells with the indicated concentration of compound 3g for 24 h (n = 3, * p < 0.05, ** p < 0.01 vs. DMSO control, one-way ANOVA).

MCF-7 cells [3] = test: Transwell migration assay; format: cell-based, human; details: 24 h exposure, dose-dependent
Method: The impact of compound 3g on MCF-7 cell migration was assessed using wound healing and transwell migration assays.
MCF-7 cells were seeded into six-well culture plates at a density of 5 × 10^5 cells per well for 24 h. After treatment with compounds 3g at different concentrations for 24 h, cells were harvested and inoculated on transwell filters ([…] pore size, Millipore, Billerica, MA, USA) in 24-well culture plates. The cells in the top chamber were cultured in the FBS-free medium, and those in the bottom chamber were cultured in the medium containing 10% FBS. The plates were cultivated for an additional 48 h, and the cells that had migrated to the bottom of the top chambers were fixed with 4% paraformaldehyde and then stained with 0.1% crystal violet. Images of migrated cells were obtained using an inverted microscope (Olympus IX73, Olympus Corporation, Tokyo, Japan).
Figure 4 Effect of compound 3g on the migration of MCF-7 breast cancer cells. (A) 3g inhibited the migration of MCF-7 cells at different concentrations in a dose-dependent manner. Representative images of wound healing were captured by an inverted microscope at 0 h and 24 h treatment. Scale bar = 200 μm. (B) Wound closure percentages in the different groups after treatment with 3g for 24 h. (C) Results of the transwell migration assay. […]

[4] = In vivo tolerability (body weight, H&E histopathology of liver and kidney); parameters: species or system mouse
Method: All animal procedures were approved by the Animal Ethics Committee of the Naval Medical University (permit number: EC11-055). Male BALB/c mice (6–8 weeks old, average initial body weight approximately 18–20 g) were purchased from Shanghai SLAC Laboratory Animal Co., Ltd. The inhibitory effect of compound 3g was evaluated using a subcutaneous B16-F10 melanoma xenograft model. Log-phase B16F10 cells were suspended in PBS and subcutaneously injected into mice (200 μL containing 8 × 10^5 cells per mouse) to establish tumors. Mice were randomly divided into control and treatment groups (n = 8). Compound 3g and paclitaxel were dissolved in a vehicle consisting of DMSO:PEG:Tween-80:saline (v/v/v/v, 5:35:10:50) to the desired concentrations. Treatments (paclitaxel, 10 mg/kg; compound 3g, 20 and 50 mg/kg, doses calculated on a body-weight basis) and vehicle were administered once daily via intraperitoneal injection for 14 consecutive days. Body weights were monitored throughout the study to assess acute toxicity. Tumor volumes were measured using calipers and calculated with the formula: a × b^2 × 0.5, where a and b represent the larger and smaller tumor diameters, respectively. On day 14, mice were sacrificed and tumors were excised and weighed. […] Major organs (liver and kidneys) were collected, fixed in 4% paraformaldehyde, processed into paraffin sections, stained with hematoxylin and eosin (H&E), and examined microscopically.
Figure 8 Compound 3g inhibits melanoma tumor growth in vivo. Murine melanoma B16-F10 xenograft tumors were established in mice, which were then administered vehicle, PTX (10 mg/kg per day), compound 3g (20 mg/kg per day), and compound 3g (50 mg/kg per day) for 14 days. The mice were sacrificed, and the tumors were weighed. (A) Images of tumors from mice at 14 days after initiation of treatment. (B) Body weight changes in mice during treatment. (C) Weight of the excised tumors of each group. * p < 0.05, and *** p < 0.001 vs. control group. (D) Tumor volume changes in mice during treatment. […]

[5] = 20 and 50 mg/kg i.p. daily, 14 days

`COc1cc(-n2ccc3ccc(-c4ccc(C)c(C#N)c4)cc32)cc(OC)c1OC` [3g, 2-methyl-5-(1-(3,4,5-trimethoxyphenyl)-1H-indol-6-yl)benzonitrile] showed an IC50 (MCF-7 cells [1]) of 2940 ± 560 nM, an IC50 (MDA-MB-231 cells) of 1610 ± 4 nM and an IC50 (A549 cells) of 6.3 ± 0.3 µM. For the same molecule, the “clonogenic survival / colony formation” value (MCF-7 cells [2]; 0.1 μM) was “moderate reduction”, the colony formation (MCF-7 cells [2]; 1 μM) was “progressively greater inhibition” and the colony formation (MCF-7 cells [2]; 10 μM) was “near-complete suppression”. For the same molecule, the “number of cells traversing the membrane” value (MCF-7 cells [3]) was “significant reduction”, the systemic toxicity ([4]; 20 mg/kg and 50 mg/kg) was “without evident systemic toxicity” and the body weight change [4, 5] was “did not induce significant body weight loss”. The “histopathology of liver and kidneys (H&E)” value [4, 5] was “no overt toxicity; also recorded: did not reveal obvious morphological abnormalities”.
